Results published in article PMC12846677 (Viruses, 2025).
Where “and” joins values, the source holds several entries; their conditions need not be identical. Equal entries are not always repeated. Where two headings read alike, the source gives them in different places.

Experiments:
NL4-3IN-R263K = assay: microbe, parasite or virus in culture; type: cell-based; conditions: Human immunodeficiency virus 1; read-out: EC50
HIV-1IIIB [1] = assay: microbe, parasite or virus in culture; conditions: Human immunodeficiency virus 1, C8166, HIV-1IIIB
HIV-1IIIB [2] = assay: Combined antiviral activity assay (p24 ELISA, CompuSyn); type: cell-based
HIV-1DRACC017 = assay: microbe, parasite or virus in culture; type: cell-based; conditions: for EC50: Human immunodeficiency virus 1, HIV-1DRACC017, p24
NL4-3 = assay: microbe, parasite or virus in culture; type: cell-based; conditions: Human immunodeficiency virus 1, NL43; NL4-3, p24
[3] = Cytotoxicity MTT assay in C8166 cells; type: cell-based; conditions: human
HIV-1IIIB [4] = assay: microbe, parasite or virus in culture; type: cell-based; conditions: Human immunodeficiency virus 1, MT4, MTT
HIV-1IIIB [5] = assay: HIV-1IIIB-induced cytopathic effect (syncytia counting) in C8166 cells
HIV-1WAN (CRF01_AE) [6] = conditions: PBMC, p24
HIV-1KIZ011 (CRF07_BC) [7] = conditions: HIV-1KIZ011, PBMC, p24
[8] = test system: clinical isolated strains; assay: microbe, parasite or virus in culture; type: cell-based; conditions: Human immunodeficiency virus 1, read-out: EC50 range
[9] = biological target: HIV-1 mutant N155H integrase (Human immunodeficiency virus type 1 group M subtype B, UniProt P04585, N1302H); assay: biochemical; conditions: HIV-1N155H integrase, mean n = 4
drug-resistant strains = assay: microbe, parasite or virus in culture; type: cell-based; conditions: Human immunodeficiency virus 1; panel of drug-resistant strains; read-out: EC50 range
HIV-1_4755-5 [10] = conditions: HIV-1_4755-5, C8166, p24
[11] = Cytotoxicity MTT assay in PBMCs; type: cell-based; conditions: human, peripheral blood mononuclear cells (PBMCs), PBMC
HIV-1WAN (CRF01_AE) [12] = assay: microbe, parasite or virus in culture; conditions: Human immunodeficiency virus 1, PBMC
HIV-1KIZ011 (CRF07_BC) [13] = assay: microbe, parasite or virus in culture; conditions: Human immunodeficiency virus 1, PBMC
HIV-1IIIB [14] = assay: qPCR determination of Late-RT, 2-LTR and Alu-LTR in infected C8166 cells; type: cell-based
HIV-1A17 [15] = assay: microbe, parasite or virus in culture; conditions: Human immunodeficiency virus 1, C8166
HIV-1TC-1 (CRF01_AE) [16] = assay: microbe, parasite or virus in culture; conditions: Human immunodeficiency virus 1, PBMC
HIV-1_4755-5 [17] = assay: microbe, parasite or virus in culture; conditions: Human immunodeficiency virus 1, C8166
HIV-1A17 [18] = conditions: HIV-1A17, C8166, p24
[19] = test system: pNL4-3gp41(36G) V38A, N42T; conditions: C8166, p24
[20] = Cytotoxicity MTT assay in MT4 cells; type: cell-based; conditions: human
HIV-1IIIB [21] = test system: HIV-1IIIB
HIV-1TC-1 (CRF01_AE) [22] = conditions: HIV-1TC-1, PBMC, p24
[23] = set-up: method as in CTR20240167; conditions: healthy adults, single-dose administration; ref CTR20240167; cited from earlier work
[24] = p24 (Table 4, resistance study)

SMILES: Nc1ccn([C@@H]2CS[C@H](CO)O2)c(=O)n1 [3TC, Lamivudine]
- EC50 (NL4-3IN-R263K): 180 ± 38.5 nM
- EC50 (HIV-1IIIB [1]; [24]): 181 ± 41.5 nM
- DRI Value ED75 (HIV-1IIIB [2]; combination ACC017 + 3TC): 6.21
- DRI Value ED90 (HIV-1IIIB [2]; combination ACC017 + 3TC): 7.90
- DRI Value ED95 (HIV-1IIIB [2]; combination ACC017 + 3TC): 9.30
- DRI Value ED75 (HIV-1IIIB [2]; combination DTG + 3TC): 5.03
- DRI Value ED90 (HIV-1IIIB [2]; combination DTG + 3TC): 6.79
- DRI Value ED95 (HIV-1IIIB [2]; combination DTG + 3TC): 8.33
- EC50 (HIV-1DRACC017): 322 ± 34.6 nM
- FC (Fold Change) EC50 (HIV-1DRACC017)/EC50 (HIV-1IIIB) (HIV-1DRACC017; p24): 1.78
- EC50 (NL4-3): 198 ± 101 nM

SMILES: CCn1c(C(=O)c2cc(C)cc(C#N)c2)c(C(C)C)c(=O)[nH]c1=O [ACC007, Ainuovirine]
- DRI Value ED75 (HIV-1IIIB [2]; combination ACC017 + ACC007): 3.77
- DRI Value ED90 (HIV-1IIIB [2]; combination ACC017 + ACC007): 6.12
- DRI Value ED95 (HIV-1IIIB [2]; combination ACC017 + ACC007): 8.66
- DRI Value ED75 (HIV-1IIIB [2]; combination DTG + ACC007): 4.66
- DRI Value ED90 (HIV-1IIIB [2]; combination DTG + ACC007): 7.34
- DRI Value ED95 (HIV-1IIIB [2]; combination DTG + ACC007): 10.16

SMILES: C[C@H]1N2C(=O)c3c(O)c(=O)c(C(=O)NCc4ccc(F)cc4F)cn3C[C@@H]2OCC12CC2 [ACC017]
- CC50 at 3 d [3]: 20370 ± 100 nM
- EC50 (HIV-1IIIB [4]): 0.05147 ± 2e-05 nM
- SI (CC50/EC50) (HIV-1IIIB [5]; HIV-1IIIB, C8166, syncytia): 34,525.42
- EC50 (HIV-1IIIB [5]; Human immunodeficiency virus 1, C8166): 0.59 ± 0.09 nM
- SI (CC50/EC50) (HIV-1WAN (CRF01_AE) [6]): 8561.80
- SI (CC50/EC50) (HIV-1KIZ011 (CRF07_BC) [7]): 46,181.82
- EC50 [8]: 0.11 to 1.78 nM
- IC50 [9]: 9.91 nM
- EC50 (drug-resistant strains): 0.34 to 9.12 nM
- SI (CC50/EC50) (HIV-1_4755-5 [10]): 2233.55
- EC50 (NL4-3IN-R263K): 28.1 ± 4.22 nM
- CC50 at 7 d [11]: 15200 nM
- EC50 (HIV-1WAN (CRF01_AE) [12]): 1.78 ± 0.29 nM
- EC50 (HIV-1KIZ011 (CRF07_BC) [13]): 0.33 ± 0.06 nM
- Late-RT level versus positive control (PC) group (HIV-1IIIB [14]; C8166, HIV-1IIIB MOI 0.5, 100 nM ACC017, 4-8 h): no significant difference compared with the PC group
- 2-LTR level (nuclear entry) (HIV-1IIIB [14]; C8166, HIV-1IIIB MOI 0.5, 100 nM ACC017, 8, 12, 24 h): unable to block the nuclear entry process
- Alu-LTR level (integrated provirus) (HIV-1IIIB [14]; C8166, HIV-1IIIB MOI 0.5, 100 nM ACC017, 24 h, nested PCR): significantly reduced
- EC50 (HIV-1A17 [15]): 8.51 ± 0.25 nM
- EC50 (HIV-1TC-1 (CRF01_AE) [16]): 0.11 ± 0.06 nM
- EC50 (HIV-1_4755-5 [17]): 9.12 ± 2.31 nM
- EC50 (HIV-1IIIB [1]; C8166, p24 (Table 1)): 0.59 ± 0.09 nM
- EC50 (HIV-1IIIB [1]; C8166, p24, 20% human serum): 8.28 ± 2.02 nM
- EC50 (HIV-1IIIB [1]; [24]): 1.25 ± 0.48 nM
- DRI Value ED75 (HIV-1IIIB [2]; combination ACC017 + 3TC): 5.25
- DRI Value ED90 (HIV-1IIIB [2]; combination ACC017 + 3TC): 9.07
- DRI Value ED95 (HIV-1IIIB [2]; combination ACC017 + 3TC): 13.15
- DRI Value ED75 (HIV-1IIIB [2]; combination ACC017 + ACC007): 4.07
- DRI Value ED90 (HIV-1IIIB [2]; combination ACC017 + ACC007): 6.48
- DRI Value ED95 (HIV-1IIIB [2]; combination ACC017 + ACC007): 8.97
- DRI Value ED75 (HIV-1IIIB [2]; combination ACC017 + ACC017): 1.77 and 3.46
- DRI Value ED90 (HIV-1IIIB [2]; combination ACC017 + ACC017): 2.06 and 2.77
- DRI Value ED95 (HIV-1IIIB [2]; combination ACC017 + ACC017): 2.32 and 2.42
- DRI Value ED75 (HIV-1IIIB [2]; combination ACC017 + DTG): 2.89
- DRI Value ED90 (HIV-1IIIB [2]; combination ACC017 + DTG): 2.45
- DRI Value ED95 (HIV-1IIIB [2]; combination ACC017 + DTG): 2.27
- DRI Value ED75 (HIV-1IIIB [2]; combination ACC017 + FTC + TAF): 4.62
- DRI Value ED90 (HIV-1IIIB [2]; combination ACC017 + FTC + TAF): 6.79
- DRI Value ED95 (HIV-1IIIB [2]; combination ACC017 + FTC + TAF): 9.05
- EC50 (HIV-1DRACC017): > 5000 nM
- SI (CC50/EC50) (HIV-1A17 [18]): 2393.65
- EC50 [19]: 0.34 ± 0.09 nM
- SI (CC50/EC50) [19]: 59,911.76
- CC50 at 3 d [20]: 24800 ± 80 nM
- SI (CC50/EC50) (HIV-1IIIB [21]; C8166, p24): 34,525.42
- Fold increase of EC50 in the presence of 20% human serum (HIV-1IIIB [21]; C8166, p24, with vs without 20% human serum): 14.03 fold
- EC50 (NL4-3): 1.7 ± 0.47 nM
- SI (CC50/EC50) (HIV-1TC-1 (CRF01_AE) [22]): 138,545.45
- Safety and tolerability [23]: favorable safety and tolerability profile
